Measured values: US6355799B1, “Substituted benzene compounds, process for their preparation, and herbicidal and defoliant compositions containing them” (ISK Americas Incorporated, priority 1997, dated 2002)

Key:
Type in all cases: in vivo
[1] = system: redroot pigweed (Amaranthus retroflexus, AMARE); test: Pre-emerge test, greenhouse herbicide activity screening; details: pre-emerge, rated 14 days after application, 0 = no damage, 100 = complete death
Summary of the method: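 Compounds in acetone were track-sprayed at 15-1000 g ai/ha (187 l/ha) on sandy loam pots: pre-emerge one day after seeding, post-emerge at 2-3 leaf stage with 0.25% v/v non-ionic surfactant. Phytotoxicity was rated 14 days later on a 0 (no damage) to 100 (complete death) scale.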

[2] = system: barnyardgrass (Echinochloa crus-galli, ECHCG); test: as above; details: pre-emerge, rated 14 days after application, 0 = no damage, 100 = complete death
Summary of the method: (§1)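 Compounds in acetone were track-sprayed at 187 l/ha, 15–1000 g ai/ha, onto sandy loam pots. Pre-emerge seeds were sown one day before spraying, with surface watering afterwards. Post-emerge plants were at the 2–3 leaf stage and sprayed with 0.25% v/v non-ionic surfactant. Injury was rated 0–100 at 14 days.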

[3] = system: green foxtail (Setaria viridis, SETVI); test: as above; details: pre-emerge, rated 14 days after application, 0 = no damage, 100 = complete death
Summary of the method: as §1

[4] = system: ivyleaf morningglory (Ipomoea hederacea, IPOHE); test: as above; details: pre-emerge, rated 14 days after application, 0 = no damage, 100 = complete death
Summary of the method: as §1

[5] = system: johnsongrass (Sorghum halepense, SORHA); test: as above; details: pre-emerge, rated 14 days after application, 0 = no damage, 100 = complete death
Summary of the method: as §1

[6] = system: lambsquarters (Chenopodium album, CHEAL); test: as above; details: pre-emerge, rated 14 days after application, 0 = no damage, 100 = complete death
Summary of the method: as §1

[7] = system: large crabgrass (Digitaria sanguinalis, DIGSA); test: as above; details: pre-emerge, rated 14 days after application, 0 = no damage, 100 = complete death
Summary of the method: as §1

[8] = system: sicklepod (Cassia obtusifolia, CASOB); test: as above; details: pre-emerge, rated 14 days after application, 0 = no damage, 100 = complete death
Summary of the method: as §1

[9] = system: velvetleaf (Abutilon theophrasti, ABUTH); test: as above; details: pre-emerge, rated 14 days after application, 0 = no damage, 100 = complete death
Summary of the method: as §1

[10] = system: field corn (Zea mays L., var. Dekalb 535, CORN); test: Pre-emerge test, crop safety; details: pre-emerge, rated 14 days after application, 0 = no damage, 100 = complete death
Summary of the method: (§2)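 Fourteen days after spraying, crop and weed injury was graded visually from 0, no effect, to 100, every plant dead. Test substances were dissolved in acetone and applied at 15–1000 g ai/ha with a flat-fan nozzle. Application was either pre-emergence, one day after sowing, or post-emergence at the 2–3 leaf stage.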

[11] = system: upland rice (Oryza sp., var. Tebonnet, RICE); test: Pre-emerge test, crop safety; details: pre-emerge, rated 14 days after application, 0 = no damage, 100 = complete death
Summary of the method: as §2

[12] = system: barnyardgrass (Echinochloa crus-galli, ECHCG); test: Post-emerge test, greenhouse herbicide activity screening; details: phytotoxicity rating 0-100 (0 no damage, 100 complete death), 14 days after application
Summary of the method: (§3)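 Compounds in acetone were track-sprayed at 15–1000 g ai/ha: pre-emergence onto soil sown the previous day, then top-watered to incorporate and later bottom-watered; post-emergence onto 2–3 leaf plants with 0.25% v/v surfactant, bottom-watered only. Ratings on a 0–100 phytotoxicity scale were taken at day 14.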

[13] = system: common ragweed (Ambrosia artemisizfolia L., AMBEL); test: as above; details: 250 g ai/ha; phytotoxicity rating 0-100 (0 no damage, 100 complete death), 14 days after application
Summary of the method: as §3

[14] = system: green foxtail (Setaria viridis, SETVI); test: as above; details: phytotoxicity rating 0-100 (0 no damage, 100 complete death), 14 days after application
Summary of the method: as §3

[15] = system: ivyleaf morningglory (Ipomoea hederacea, IPOHE); test: as above; details: phytotoxicity rating 0-100 (0 no damage, 100 complete death), 14 days after application
Summary of the method: as §3

[16] = system: johnsongrass (Sorghum halepense, SORHA); test: as above; details: phytotoxicity rating 0-100 (0 no damage, 100 complete death), 14 days after application
Summary of the method: as §3

[17] = system: lambsquarters (Chenopodium album, CHEAL); test: as above; details: phytotoxicity rating 0-100 (0 no damage, 100 complete death), 14 days after application
Summary of the method: as §3

[18] = system: large crabgrass (Digitaria sanguinalis, DIGSA); test: as above; details: phytotoxicity rating 0-100 (0 no damage, 100 complete death), 14 days after application
Summary of the method: as §3

[19] = system: redroot pigweed (Amaranthus retroflexus, AMARE); test: as above; details: phytotoxicity rating 0-100 (0 no damage, 100 complete death), 14 days after application
Summary of the method: as §3

[20] = system: sicklepod (Cassia obtusifolia, CASOB); test: as above; details: phytotoxicity rating 0-100 (0 no damage, 100 complete death), 14 days after application
Summary of the method: as §3

[21] = system: velvetleaf (Abutilon theophrasti, ABUTH); test: as above; details: phytotoxicity rating 0-100 (0 no damage, 100 complete death), 14 days after application
Summary of the method: as §3

[22] = system: field corn (Zea mays L., var. Dekalb 535, CORN); test: Post-emerge test, crop safety; details: phytotoxicity rating 0-100 (0 no damage, 100 complete death), 14 days after application
Summary of the method: as §1

[23] = system: upland rice (Oryza sp., var. Tebonnet, RICE); test: Post-emerge test, crop safety; details: phytotoxicity rating 0-100 (0 no damage, 100 complete death), 14 days after application
Summary of the method: as §1

`CCOC(=O)CC(=O)Nc1c(OC(=O)CC(=O)OCC)c(Cl)cc(F)c1-n1c(=O)cc(C(F)(F)F)n(C)c1=O` [2-16] was tested, and the “Pre-emerge Herbicidal Activity AMARE (phytotoxicity rating, scale 0-100)” value ([1]; 63 g ai/ha) was 50, the “Pre-emerge Herbicidal Activity AMARE (phytotoxicity rating, scale 0-100)” value ([1]; 250 g ai/ha) was 100 and the “Pre-emerge Herbicidal Activity ECHCG (phytotoxicity rating, scale 0-100)” value ([2]; 63 g ai/ha) was 0. The “Pre-emerge Herbicidal Activity ECHCG (phytotoxicity rating, scale 0-100)” value ([2]; 250 g ai/ha) was 40, the “Pre-emerge Herbicidal Activity SETVI (phytotoxicity rating, scale 0-100)” value ([3]; 63 g ai/ha) was 0 and the “Pre-emerge Herbicidal Activity SETVI (phytotoxicity rating, scale 0-100)” value ([3]; 250 g ai/ha) was 100. For the same compound, the “Pre-emerge Herbicidal Activity IPOHE (phytotoxicity rating, scale 0-100)” value ([4]; 63 g ai/ha) was 0, the “Pre-emerge Herbicidal Activity IPOHE (phytotoxicity rating, scale 0-100)” value ([4]; 250 g ai/ha) was 90 and the “Pre-emerge Herbicidal Activity SORHA (phytotoxicity rating, scale 0-100)” value ([5]; 63 g ai/ha) was 0. For the same compound, the “Pre-emerge Herbicidal Activity SORHA (phytotoxicity rating, scale 0-100)” value ([5]; 250 g ai/ha) was 80, the “Pre-emerge Herbicidal Activity CHEAL (phytotoxicity rating, scale 0-100)” value ([6]; 63 g ai/ha) was 95 and the “Pre-emerge Herbicidal Activity CHEAL (phytotoxicity rating, scale 0-100)” value ([6]; 250 g ai/ha) was 100. The “Pre-emerge Herbicidal Activity DIGSA (phytotoxicity rating, scale 0-100)” value ([7]; 63 g ai/ha) was 0, the “Pre-emerge Herbicidal Activity DIGSA (phytotoxicity rating, scale 0-100)” value ([7]; 250 g ai/ha) was 100 and the “Pre-emerge Herbicidal Activity CASOB (phytotoxicity rating, scale 0-100)” value ([8]; 63 g ai/ha) was 0. For the same compound, the “Pre-emerge Herbicidal Activity CASOB (phytotoxicity rating, scale 0-100)” value ([8]; 250 g ai/ha) was 100, the “Pre-emerge Herbicidal Activity ABUTH (phytotoxicity rating, scale 0-100)” value ([9]; 63 g ai/ha) was 80 and the “Pre-emerge Herbicidal Activity ABUTH (phytotoxicity rating, scale 0-100)” value ([9]; 250 g ai/ha) was 100. For the same compound, the “Pre-emerge crop damage CORN (phytotoxicity rating, scale 0-100)” value ([10]; 63 g ai/ha) was 0, the “Pre-emerge crop damage CORN (phytotoxicity rating, scale 0-100)” value ([10]; 250 g ai/ha) was 20 and the “Pre-emerge crop damage RICE (phytotoxicity rating, scale 0-100)” value ([11]; 63 g ai/ha) was 0. For the same compound, the “Pre-emerge crop damage RICE (phytotoxicity rating, scale 0-100)” value ([11]; 250 g ai/ha) was 15, the “Post-emerge Herbicidal Activity ECHCG” value ([12]; 63 g ai/ha) was 90 and the “Post-emerge Herbicidal Activity ECHCG” value ([12]; 250 g ai/ha) was 100. For the same compound, the “Post-emerge Herbicidal Activity AMBEL” value [13] was 100, the “Post-emerge Herbicidal Activity SETVI” value ([14]; 63 g ai/ha) was 50 and the “Post-emerge Herbicidal Activity SETVI” value ([14]; 250 g ai/ha) was 100. For the same compound, the “Post-emerge Herbicidal Activity IPOHE” value ([15]; 63 g ai/ha) was 99, the “Post-emerge Herbicidal Activity IPOHE” value ([15]; 250 g ai/ha) was 100 and the “Post-emerge Herbicidal Activity SORHA” value ([16]; 63 g ai/ha) was 40. The “Post-emerge Herbicidal Activity SORHA” value ([16]; 250 g ai/ha) was 95, the “Post-emerge Herbicidal Activity CHEAL” value ([17]; 63 g ai/ha) was 80 and the “Post-emerge Herbicidal Activity CHEAL” value ([17]; 250 g ai/ha) was 100. The “Post-emerge Herbicidal Activity DIGSA” value ([18]; 63 g ai/ha) was 20, the “Post-emerge Herbicidal Activity DIGSA” value ([18]; 250 g ai/ha) was 60 and the “Post-emerge Herbicidal Activity AMARE” value ([19]; 63 g ai/ha) was 50. The “Post-emerge Herbicidal Activity AMARE” value ([19]; 250 g ai/ha) was 100, the “Post-emerge Herbicidal Activity CASOB” value ([20]; 63 g ai/ha) was 10 and the “Post-emerge Herbicidal Activity CASOB” value ([20]; 250 g ai/ha) was 80. For the same compound, the “Post-emerge Herbicidal Activity ABUTH” value ([21]; 63 g ai/ha) was 100, the “Post-emerge Herbicidal Activity ABUTH” value ([21]; 250 g ai/ha) was 100 and the “Post-emerge Herbicidal Activity CORN (crop damage)” value ([22]; 63 g ai/ha) was 70. The “Post-emerge Herbicidal Activity CORN (crop damage)” value ([22]; 250 g ai/ha) was 90, the “Post-emerge Herbicidal Activity RICE (crop damage)” value ([23]; 63 g ai/ha) was 40 and the “Post-emerge Herbicidal Activity RICE (crop damage)” value ([23]; 250 g ai/ha) was 45.
